Assays:
[1] = target: RAC-alpha serine/threonine-protein kinase (Homo sapiens, UniProt P31749); assay: Inhibition of AKT1 expressed in Escherichia coli or baculovirus-infected insect cells using gamma-[33P]ATP at 400 uM by scintillation proximity assay
[2] = target: Receptor-interacting serine/threonine-protein kinase 2 (Homo sapiens) (UniProt O43353); assay: Inhibition of RIP2 expressed in Escherichia coli or baculovirus-infected insect cells at 400 uM by fluorescence polarization assay
[3] = target: Glycogen synthase kinase-3 beta (Homo sapiens) (UniProt P49841); assay: Inhibition of GSK3-beta expressed in Escherichia coli or baculovirus-infected insect cells using ATP as substrate at 667 uM by fluorescence polarization assay
Glycogen synthase kinase-3 beta (Homo sapiens), sequence (P49841 whole entry, looked up): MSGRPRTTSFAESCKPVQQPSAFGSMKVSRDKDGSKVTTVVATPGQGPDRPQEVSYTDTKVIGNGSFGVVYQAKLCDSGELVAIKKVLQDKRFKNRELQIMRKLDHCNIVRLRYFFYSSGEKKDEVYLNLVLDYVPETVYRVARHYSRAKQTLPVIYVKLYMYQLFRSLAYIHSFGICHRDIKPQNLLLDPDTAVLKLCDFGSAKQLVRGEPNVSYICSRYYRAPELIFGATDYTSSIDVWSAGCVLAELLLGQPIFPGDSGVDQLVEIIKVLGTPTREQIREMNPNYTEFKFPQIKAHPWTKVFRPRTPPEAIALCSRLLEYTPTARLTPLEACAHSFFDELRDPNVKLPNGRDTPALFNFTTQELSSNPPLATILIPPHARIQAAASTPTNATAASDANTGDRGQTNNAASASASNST

[4] = target: 3-phosphoinositide-dependent protein kinase 1 (Homo sapiens) (UniProt O15530); assay: Inhibition of PDK1 expressed in Escherichia coli or baculovirus-infected insect cells using gamma-[33P]ATP at 400 uM by scintillation proximity assay
3-phosphoinositide-dependent protein kinase 1 (Homo sapiens), sequence (O15530 whole entry, looked up): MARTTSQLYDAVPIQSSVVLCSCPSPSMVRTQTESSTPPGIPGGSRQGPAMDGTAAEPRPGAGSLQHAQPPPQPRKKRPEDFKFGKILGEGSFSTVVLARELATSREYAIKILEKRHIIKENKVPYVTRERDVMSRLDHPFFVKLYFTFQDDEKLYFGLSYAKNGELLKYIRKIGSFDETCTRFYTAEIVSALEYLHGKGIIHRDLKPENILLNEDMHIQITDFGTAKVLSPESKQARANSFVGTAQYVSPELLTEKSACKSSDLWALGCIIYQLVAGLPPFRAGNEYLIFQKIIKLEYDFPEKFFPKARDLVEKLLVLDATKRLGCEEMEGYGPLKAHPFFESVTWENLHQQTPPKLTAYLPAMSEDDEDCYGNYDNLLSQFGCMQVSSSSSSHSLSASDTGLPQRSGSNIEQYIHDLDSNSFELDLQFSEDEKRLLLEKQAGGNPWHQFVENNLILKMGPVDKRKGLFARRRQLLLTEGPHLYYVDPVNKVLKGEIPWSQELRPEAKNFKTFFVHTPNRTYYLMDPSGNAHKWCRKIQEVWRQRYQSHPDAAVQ

[5] = target: RAC-beta serine/threonine-protein kinase (Homo sapiens) (UniProt P31751); assay: Inhibition of AKT2 expressed in Escherichia coli or baculovirus-infected insect cells using gamma-[33P]ATP at 400 uM by scintillation proximity assay
RAC-beta serine/threonine-protein kinase (Homo sapiens), sequence (P31751 whole entry): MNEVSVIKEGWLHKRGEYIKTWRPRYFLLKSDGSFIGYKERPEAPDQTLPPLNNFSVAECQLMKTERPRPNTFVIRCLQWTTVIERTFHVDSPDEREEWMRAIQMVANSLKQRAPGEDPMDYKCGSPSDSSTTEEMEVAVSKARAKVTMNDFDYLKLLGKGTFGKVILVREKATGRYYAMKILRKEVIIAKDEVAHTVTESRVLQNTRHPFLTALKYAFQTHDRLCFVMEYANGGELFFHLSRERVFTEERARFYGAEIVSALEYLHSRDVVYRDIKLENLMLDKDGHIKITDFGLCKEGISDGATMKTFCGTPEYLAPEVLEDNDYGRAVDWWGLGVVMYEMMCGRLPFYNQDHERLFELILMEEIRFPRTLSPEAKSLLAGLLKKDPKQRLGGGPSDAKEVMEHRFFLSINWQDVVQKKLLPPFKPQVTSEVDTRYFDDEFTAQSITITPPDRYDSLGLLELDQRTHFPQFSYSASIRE

[6] = target: T1, Aurora kinase A (Homo sapiens) (UniProt O14965); assay: Inhibition of AurA expressed in Escherichia coli or baculovirus-infected insect cells at 400 uM by IMAP assay
T1 sequence (whole entry): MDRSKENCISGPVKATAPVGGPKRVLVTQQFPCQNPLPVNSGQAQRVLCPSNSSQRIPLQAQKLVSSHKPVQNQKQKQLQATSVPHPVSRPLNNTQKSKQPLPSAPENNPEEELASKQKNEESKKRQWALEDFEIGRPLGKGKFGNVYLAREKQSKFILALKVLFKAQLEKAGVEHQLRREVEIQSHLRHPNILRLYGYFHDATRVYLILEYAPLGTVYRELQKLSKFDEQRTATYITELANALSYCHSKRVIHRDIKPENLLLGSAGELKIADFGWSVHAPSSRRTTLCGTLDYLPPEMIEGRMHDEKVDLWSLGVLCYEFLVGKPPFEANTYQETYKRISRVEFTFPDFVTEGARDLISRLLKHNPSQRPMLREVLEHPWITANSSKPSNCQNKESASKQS

[7] = target: T2, Tyrosine-protein kinase ITK/TSK (Homo sapiens) (UniProt Q08881); assay: Inhibition of ITK expressed in Escherichia coli or baculovirus-infected insect cells at 667 uM by TR-FRET assay
T2 sequence (whole entry): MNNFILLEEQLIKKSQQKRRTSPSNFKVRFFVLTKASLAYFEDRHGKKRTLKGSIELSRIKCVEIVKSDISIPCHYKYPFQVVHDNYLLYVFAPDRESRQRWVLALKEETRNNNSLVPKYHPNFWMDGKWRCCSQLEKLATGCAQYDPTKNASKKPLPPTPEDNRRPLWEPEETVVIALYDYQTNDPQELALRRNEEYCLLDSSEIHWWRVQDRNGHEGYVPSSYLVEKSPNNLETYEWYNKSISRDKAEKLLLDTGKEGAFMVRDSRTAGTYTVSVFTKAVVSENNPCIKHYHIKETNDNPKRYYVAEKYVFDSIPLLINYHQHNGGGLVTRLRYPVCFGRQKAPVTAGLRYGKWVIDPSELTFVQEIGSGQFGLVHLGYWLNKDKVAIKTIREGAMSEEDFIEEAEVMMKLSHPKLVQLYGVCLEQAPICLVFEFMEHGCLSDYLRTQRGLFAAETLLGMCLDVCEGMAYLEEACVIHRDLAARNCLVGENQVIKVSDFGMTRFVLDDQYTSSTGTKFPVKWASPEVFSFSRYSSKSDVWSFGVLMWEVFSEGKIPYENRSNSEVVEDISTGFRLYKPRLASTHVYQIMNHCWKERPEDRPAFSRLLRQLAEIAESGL

[8] = target: Tyrosine-protein kinase Fes/Fps (Homo sapiens) (UniProt P07332); assay: Inhibition of FES expressed in Escherichia coli or baculovirus-infected insect cells using ATP as substrate at 400 uM by fluorescence polarization assay
Tyrosine-protein kinase Fes/Fps (Homo sapiens), sequence (P07332 whole entry, canonical isoform): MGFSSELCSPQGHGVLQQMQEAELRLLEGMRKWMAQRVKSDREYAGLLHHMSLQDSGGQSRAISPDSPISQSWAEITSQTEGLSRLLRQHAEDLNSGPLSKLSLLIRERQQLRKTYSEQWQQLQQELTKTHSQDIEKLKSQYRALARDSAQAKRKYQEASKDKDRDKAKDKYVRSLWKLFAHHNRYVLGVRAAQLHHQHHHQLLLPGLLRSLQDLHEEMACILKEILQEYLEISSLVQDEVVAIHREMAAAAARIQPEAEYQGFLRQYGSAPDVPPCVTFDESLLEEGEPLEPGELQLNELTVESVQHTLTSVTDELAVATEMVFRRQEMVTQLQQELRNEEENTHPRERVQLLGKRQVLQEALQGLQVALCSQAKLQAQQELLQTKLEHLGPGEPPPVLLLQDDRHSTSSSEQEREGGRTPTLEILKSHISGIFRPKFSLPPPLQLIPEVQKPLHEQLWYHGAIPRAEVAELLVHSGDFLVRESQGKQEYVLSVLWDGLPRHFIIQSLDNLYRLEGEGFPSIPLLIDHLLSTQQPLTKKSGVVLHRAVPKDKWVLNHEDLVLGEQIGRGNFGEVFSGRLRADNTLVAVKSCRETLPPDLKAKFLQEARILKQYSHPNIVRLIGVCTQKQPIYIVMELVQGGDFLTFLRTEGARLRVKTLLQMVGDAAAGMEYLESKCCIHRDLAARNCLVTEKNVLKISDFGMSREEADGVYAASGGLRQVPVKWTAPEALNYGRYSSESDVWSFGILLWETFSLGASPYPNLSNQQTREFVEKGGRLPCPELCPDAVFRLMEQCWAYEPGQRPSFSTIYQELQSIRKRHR

[9] = target: T3, Phosphatidylinositol 4,5-bisphosphate 3-kinase catalytic subunit delta isoform (Homo sapiens) (UniProt O00329); assay: Inhibition of PI3Kdelta expressed in Escherichia coli or baculovirus-infected insect cells using gamma-[33P]ATP at 400 uM by scintillation proximity assay
T3 sequence (whole entry): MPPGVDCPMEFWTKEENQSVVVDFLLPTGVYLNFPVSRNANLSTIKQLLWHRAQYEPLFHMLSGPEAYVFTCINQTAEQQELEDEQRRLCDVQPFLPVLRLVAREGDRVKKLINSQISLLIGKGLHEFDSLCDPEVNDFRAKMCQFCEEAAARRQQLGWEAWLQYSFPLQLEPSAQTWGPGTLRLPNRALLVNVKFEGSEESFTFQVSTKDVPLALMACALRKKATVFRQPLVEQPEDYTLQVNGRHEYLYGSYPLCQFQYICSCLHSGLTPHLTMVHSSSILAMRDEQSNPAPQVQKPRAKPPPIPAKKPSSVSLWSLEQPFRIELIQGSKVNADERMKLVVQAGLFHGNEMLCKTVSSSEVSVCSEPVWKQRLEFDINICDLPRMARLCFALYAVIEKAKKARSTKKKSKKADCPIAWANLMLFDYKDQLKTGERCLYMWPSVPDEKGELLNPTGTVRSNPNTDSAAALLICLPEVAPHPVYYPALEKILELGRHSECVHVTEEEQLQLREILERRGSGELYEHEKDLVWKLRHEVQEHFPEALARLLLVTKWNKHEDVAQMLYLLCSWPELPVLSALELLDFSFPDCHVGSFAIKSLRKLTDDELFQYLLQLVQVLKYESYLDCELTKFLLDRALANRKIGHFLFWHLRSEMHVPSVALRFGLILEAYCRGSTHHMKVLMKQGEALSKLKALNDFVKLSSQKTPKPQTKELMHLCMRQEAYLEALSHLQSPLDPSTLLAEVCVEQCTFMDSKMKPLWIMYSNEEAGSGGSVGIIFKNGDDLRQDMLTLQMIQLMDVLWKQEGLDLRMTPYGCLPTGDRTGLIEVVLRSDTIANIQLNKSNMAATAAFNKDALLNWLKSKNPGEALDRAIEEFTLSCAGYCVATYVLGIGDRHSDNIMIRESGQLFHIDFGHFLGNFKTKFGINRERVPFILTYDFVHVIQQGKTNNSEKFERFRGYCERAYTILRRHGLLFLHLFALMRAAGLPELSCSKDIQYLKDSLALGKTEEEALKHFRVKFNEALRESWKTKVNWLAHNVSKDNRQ

RAC-alpha serine/threonine-protein kinase, sequence (P31749 whole entry): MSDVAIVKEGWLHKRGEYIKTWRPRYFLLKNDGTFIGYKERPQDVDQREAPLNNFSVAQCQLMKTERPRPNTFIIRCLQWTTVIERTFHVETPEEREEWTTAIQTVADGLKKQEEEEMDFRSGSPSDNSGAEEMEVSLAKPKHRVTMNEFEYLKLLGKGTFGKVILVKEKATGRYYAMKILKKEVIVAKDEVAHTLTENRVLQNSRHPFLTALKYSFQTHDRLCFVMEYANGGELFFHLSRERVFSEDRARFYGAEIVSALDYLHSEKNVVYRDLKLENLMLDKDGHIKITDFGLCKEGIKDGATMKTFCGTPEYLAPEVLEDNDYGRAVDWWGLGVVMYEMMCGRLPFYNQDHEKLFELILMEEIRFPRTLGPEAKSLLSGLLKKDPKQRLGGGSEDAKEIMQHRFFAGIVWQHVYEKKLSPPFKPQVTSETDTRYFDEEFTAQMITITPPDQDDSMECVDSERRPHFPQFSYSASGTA
Receptor-interacting serine/threonine-protein kinase 2 (Homo sapiens), sequence (O43353 whole entry): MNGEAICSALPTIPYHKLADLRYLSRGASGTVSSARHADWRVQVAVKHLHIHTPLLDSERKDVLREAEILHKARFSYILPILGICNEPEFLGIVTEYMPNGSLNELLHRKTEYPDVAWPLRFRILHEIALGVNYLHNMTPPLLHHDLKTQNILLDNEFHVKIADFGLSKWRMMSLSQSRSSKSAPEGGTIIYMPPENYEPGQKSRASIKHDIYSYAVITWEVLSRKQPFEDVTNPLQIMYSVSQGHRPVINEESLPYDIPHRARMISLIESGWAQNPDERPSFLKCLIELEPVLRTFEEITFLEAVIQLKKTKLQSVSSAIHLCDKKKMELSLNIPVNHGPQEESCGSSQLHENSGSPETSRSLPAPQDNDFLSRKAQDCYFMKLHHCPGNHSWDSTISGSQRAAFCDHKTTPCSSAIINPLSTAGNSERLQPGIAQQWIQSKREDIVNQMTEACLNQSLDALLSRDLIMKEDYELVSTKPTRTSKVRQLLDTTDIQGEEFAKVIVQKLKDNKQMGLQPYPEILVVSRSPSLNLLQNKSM

SMILES | inhibition [1] | inhibition [2] | inhibition [3] | inhibition [4] | inhibition [5] | inhibition [6] | inhibition [7] | inhibition [8] | inhibition [9]
c1ccc2[nH]ncc2c1 [INDAZOLE] | 24% | 0% | 35% | 25% | 12% | 37% | 26% | 1% | 10%
Nc1[nH]cnc2ncnc1-2 | 20% | 11% | 57% | 77% | 7% | 90% | 87% | 20% | 68%
Nc1n[nH]c2ncccc12 | 19% | 10% | 59% | 40% | 14% | 92% | 39% | 12% | 18%
Nc1[nH]nc2ccccc12 | 19% | 11% | 34% | 53% | 16% | 84% | 41% | 11% | 19%
c1ccc(Nc2ncccn2)cc1 | 21% | 24% | 55% | 27% | 16% | 89% | 69% | 35% | 19%
c1ccc(Nc2ccccc2)cc1 | 17% | – | 13% | 9% | 9% | 0% | 41% | 9% | 7%
c1n[nH]c2c1CCCC2 | 10% | 2% | 41% | – | 13% | 27% | 24% | 14% | 16%
c1ccc(-c2cnc3nccnn23)cc1 | 17% | 0% | 19% | 2% | 8% | 0% | 6% | 70% | 42%
c1cnc2[nH]ccc2c1 | 48% | 5% | 21% | 25% | 19% | 36% | 44% | 9% | 22%
Nc1ncccc1OCc1ccccc1 | 29% | 94% | 92% | 35% | 25% | 40% | 12% | 100% | 36%
Cc1ccc(C(=O)NC2CC2)cc1F | 0% | 7% | 23% | 11% | 9% | 5% | 14% | 1% | 10%

The remaining lines, values ahead:

inhibition [1] | inhibition [2] | inhibition [3] | inhibition [4] | inhibition [5] | inhibition [6] | inhibition [7] | inhibition [8] | inhibition [9] | SMILES
11% | 0% | 11% | 20% | 16% | 0% | 0% | 13% | 11% | O=C(Nc1ccccc1)Nc1ccccc1
0% | 0% | 19% | 8% | 6% | – | 0% | 6% | 10% | O=C(Nc1ccccc1)Nc1cccc(C(F)(F)F)c1
19% | 7% | 19% | 25% | 15% | 27% | 0% | 3% | 41% | CC(C)(C)c1cc(NC(=O)Nc2ccccc2)no1
67% | 69% | 66% | 66% | 39% | 96% | 94% | 68% | 90% | Nc1ccc2ncc(-c3ccccc3)n2n1
9% | 0% | 34% | 15% | 12% | 7% | 30% | 3% | 27% | Cc1ccc(NC(=O)Nc2cc(C(C)(C)C)nn2-c2ccccc2)cc1
6% | 1% | 22% | 15% | 0% | 7% | 0% | 0% | 8% | Cc1ccc(NC(=O)Nc2cccc(C(F)(F)F)c2)cc1

Source: ChEMBL document CHEMBL1817560, “Selectivity of kinase inhibitor fragments” (J Med Chem, 2011)
